Drawing on patent US20260098061A1, “EPHA2-BINDING PENDING PEPTIDE AND COMPOSITION COMPRISING SAME” (PeptiDream Inc., priority 2022, published 2026), this text covers Kd for eleven compounds.

Numbered stars: 1 amine (or outer) side, 2 acyl side, 3 side chain; on linkers, the order of the positions; unused ones are H or OH. Bridge positions count the residues as written; N and C are the ends. Square brackets hold non-standard residues; d marks the D form. Side chains are listed from the residue outwards. Peptide text beside a SMILES is read from it. * marks the point of attachment. X6 = Cn1cc(C[C@H](N[*:1])C(=O)[*:2])c2cccnc21; Piperazinyl(4-CH2COOH) = O=C(O)CN1CCN(*)CC1; Trp(1-Me) = Cn1cc(C[C@H](N)C(=O)O)c2ccccc21; X5 = Cc1cccc(C[C@H](N[*:1])C(=O)[*:2])c1C; NMe3Pal = CN[C@@H](Cc1cccnc1)C(=O)O; NMeF = CN[C@@H](Cc1ccccc1)C(=O)O; Gly(cBu) = N[C@H](C(=O)O)C1CCC1; NMeE = CN[C@@H](CCC(=O)O)C(=O)O; Aad = N[C@@H](CCCC(=O)O)C(=O)O; NMeN = CN[C@@H](CC(N)=O)C(=O)O; CO = O=C([*:1])[*:2]; βAla = NCCC(=O)O

In the assay the target is T1, Recombinant Human EphA2 Fc Protein (Homo sapiens, UniProt P29317).
T1 construct: purchased Elabscience
Put plainly: SPR interaction analysis (Biacore T200), kinetics of peptides against EphA2. As to conditions: Recombinant Human EphA2 Fc Protein captured by Human Antibody Capture kit; single-cycle kinetics; 25° C.; HBS-P+ buffer with 1% DMSO. Type of assay: binding. The procedure:
Example 14 Interaction Analysis by SPR was Performed Using Biacore (Cytiva)
SPR assay was performed using Biacore T200 (Cytiva).
The HBS-P+ buffer (10 mM HEPES (pH7.4), 150 mM NaCl, 0.05% (v/V) Surfactant P20) containing 1% DMSO was used as running buffer. Recombinant Human EphA2 Fc Protein (Fc tag, Elabscience) was captured by Human Antibody Capture kit (Cytiva). Peptide samples in DMSO were diluted with running buffer, and prepared five serial dilutions. Using these serial dilutions, kinetics of peptides against EphA2 was measured at a flow rate of 30 mL/min at 25° C. The method adopted for sample measurement was a single-cycle kinetics method. The analysis was conducted using the evaluation software 3.0 provided with Biacore T200. Kinetics fitting was done on the difference data obtained by subtracting the baseline data from sample measurement data. KD values were calculated based on the association rate constant (ka) and dissociation rate constant (kd).
A general note: SPR reads the build-up and loss of mass on a sensor chip optically.

Usually Kd stands for the constant that tells how readily two partners part at equilibrium. In the case of `CC(=O)NCCCC[C@@H](NC(=O)CCNC(=O)[C@@H]1CSCC(=O)N[C@H](C)C(=O)N(C)[C@@H](Cc2cccnc2)C(=O)N[C@@H](CC(N)=O)C(=O)N[C@@H](CC(C)C)C(=O)N[C@@H](CCCCNC(=O)N2CCN(CC(=O)O)CC2)C(=O)N(C)[C@@H](Cc2ccccc2)C(=O)N[C@@H](Cc2cn(C)c3ccccc23)C(=O)N[C@@H](CCCCNC(=O)N2CCN(CC(=O)O)CC2)C(=O)N[C@@H](Cc2cn(C)c3ccccc23)C(=O)N[C@@H]([C@@H](C)O)C(=O)N[C@@H](CCCC(N)=O)C(=O)N1)C(N)=O` [PDC_EphA2-00008092, da-Me3Py-N-L-KCOpipzaa-MeF-W1Me-KCOpipzaa-W1Me-T-Hgn-C-bA-dkAc-NH2] ({CH2CO}-[dA][NMe3Pal]NLK([CO-Piperazinyl(4-CH2COOH)])[NMeF][Trp(1-Me)]K([CO-Piperazinyl(4-CH2COOH)])[Trp(1-Me)]T[Aad](NH2)C[βAla][dK](Ac)-NH2; thioether N-12), the Kd is less than 1 nM.
For `CC(=O)NCCCC[C@@H](NC(=O)CCNC(=O)[C@@H]1CSCC(=O)N[C@H](C)C(=O)N(C)[C@@H](Cc2cccnc2)C(=O)N[C@@H](CC(N)=O)C(=O)N[C@@H](CC(C)C)C(=O)N[C@@H](CCCC(N)=O)C(=O)N(C)[C@@H](Cc2ccccc2)C(=O)N[C@@H](Cc2cn(C)c3ccccc23)C(=O)N[C@@H](CCCCNC(=O)N2CCN(CC(=O)O)CC2)C(=O)N[C@@H](Cc2cn(C)c3ccccc23)C(=O)N[C@@H]([C@@H](C)O)C(=O)N[C@@H](CCCC(N)=O)C(=O)N1)C(N)=O` [PDC_EphA2-00008093, da-Me3Py-N-L-Hgn-MeF-W1Me-KCOpipzaa-W1Me-T-Hgn-C-bA-dkAc-NH2] ({CH2CO}-[dA][NMe3Pal]NL[Aad](NH2)[NMeF][Trp(1-Me)]K([CO-Piperazinyl(4-CH2COOH)])[Trp(1-Me)]T[Aad](NH2)C[βAla][dK](Ac)-NH2; thioether N-12) the value was less than 1 nM.
The result for `CC(=O)NCCCC[C@@H](NC(=O)CCNC(=O)[C@@H]1CSCC(=O)N[C@H](C)C(=O)N(C)[C@@H](Cc2cccnc2)C(=O)N[C@@H](CC(N)=O)C(=O)N[C@@H](CC(C)C)C(=O)N[C@@H](CCCC(=O)O)C(=O)N(C)[C@@H](CCC(=O)O)C(=O)N[C@@H](Cc2cn(C)c3ccccc23)C(=O)N[C@@H](CCCCNC(=O)N2CCN(CC(=O)O)CC2)C(=O)N[C@@H](Cc2cn(C)c3ccccc23)C(=O)N[C@@H]([C@@H](C)O)C(=O)N[C@@H](CCCC(N)=O)C(=O)N1)C(N)=O` [PDC_EphA2-00008094, da-Me3Py-N-L-Hgl-MeE-W1Me-KCOpipzaa-W1Me-T-Hgn-C-bA-dkAc-NH2] ({CH2CO}-[dA][NMe3Pal]NL[Aad][NMeE][Trp(1-Me)]K([CO-Piperazinyl(4-CH2COOH)])[Trp(1-Me)]T[Aad](NH2)C[βAla][dK](Ac)-NH2; thioether N-12) reads less than 1 nM.
For `CC(=O)NCCCC[C@@H](NC(=O)CCNC(=O)[C@@H]1CSCC(=O)N[C@H](C)C(=O)N(C)[C@@H](Cc2cccnc2)C(=O)N[C@@H](CC(N)=O)C(=O)N[C@@H](CC(C)C)C(=O)N[C@@H](CCCCNC(=O)N2CCN(CC(=O)O)CC2)C(=O)N(C)[C@@H](CCC(=O)O)C(=O)N[C@@H](Cc2cn(C)c3ccccc23)C(=O)N[C@@H](CCCCNC(=O)N2CCN(CC(=O)O)CC2)C(=O)N[C@@H](Cc2cn(C)c3ccccc23)C(=O)N[C@@H]([C@@H](C)O)C(=O)N[C@@H](CCCC(N)=O)C(=O)N1)C(N)=O` [PDC_EphA2-00008095, da-Me3Py-N-L-KCOpipzaa-MeE-W1Me-KCOpipzaa-W1Me-T-Hgn-C-bA-dkAc-NH2] ({CH2CO}-[dA][NMe3Pal]NLK([CO-Piperazinyl(4-CH2COOH)])[NMeE][Trp(1-Me)]K([CO-Piperazinyl(4-CH2COOH)])[Trp(1-Me)]T[Aad](NH2)C[βAla][dK](Ac)-NH2; thioether N-12) the value was less than 1 nM; for `CC(=O)NCCCC[C@@H](NC(=O)CCNC(=O)[C@@H]1CSCC(=O)N[C@@H](C)C(=O)N(C)[C@@H](Cc2cccnc2)C(=O)N[C@@H](CC(N)=O)C(=O)N[C@@H](CC(C)C)C(=O)N[C@@H](CCCC(=O)O)C(=O)N(C)[C@@H](Cc2ccccc2)C(=O)N[C@@H](Cc2cn(C)c3ccccc23)C(=O)N[C@@H](CCCCNC(=O)N2CCN(CC(=O)O)CC2)C(=O)N[C@@H](Cc2cn(C)c3ccccc23)C(=O)N[C@@H]([C@@H](C)O)C(=O)N[C@@H](CCC(=O)O)C(=O)N1)C(N)=O` [PDC_EphA2-00008097, A-Me3Py-N-L-Hgl-MeF-W1Me-KCOpipzaa-W1Me-T-E-C-bA-dkAc-NH2] ({CH2CO}-A[NMe3Pal]NL[Aad][NMeF][Trp(1-Me)]K([CO-Piperazinyl(4-CH2COOH)])[Trp(1-Me)]TEC[βAla][dK](Ac)-NH2; thioether N-12), 1 to 10 nM.
Consider `CC(C)C[C@@H]1NC(=O)[C@H](CC(N)=O)NC(=O)[C@H](Cc2cccnc2)N(C)C(=O)[C@@H](C)NC(=O)CSC[C@@H](C(N)=O)NC(=O)[C@H](CCCC(N)=O)NC(=O)[C@H]([C@@H](C)O)NC(=O)[C@H](Cc2cn(C)c3ccccc23)NC(=O)[C@H](CCCCNC(=O)N2CCN(CC(=O)O)CC2)NC(=O)[C@H](Cc2cn(C)c3ccccc23)NC(=O)[C@H](Cc2ccccc2)N(C)C(=O)[C@H](CCCC(N)=O)NC1=O` [PDC_EphA2-00009998, da-Me3Py-N-L-Hgn-MeF-W1Me-KCOpipzaa-W1Me-T-Hgn-C-NH2] ({CH2CO}-[dA][NMe3Pal]NL[Aad](NH2)[NMeF][Trp(1-Me)]K([CO-Piperazinyl(4-CH2COOH)])[Trp(1-Me)]T[Aad](NH2)C-NH2; thioether N-12), for which the equilibrium dissociation constant (Kd) is less than 1 nM.
With `C[C@H]1NC(=O)CSC[C@@H](C(N)=O)NC(=O)[C@H](CCCC(N)=O)NC(=O)[C@H]([C@@H](C)O)NC(=O)[C@H](Cc2cn(C)c3ccccc23)NC(=O)[C@H](CCCCNC(=O)N2CCN(CC(=O)O)CC2)NC(=O)[C@H](Cc2cn(C)c3ccccc23)NC(=O)[C@H](Cc2ccccc2)N(C)C(=O)[C@H](CCCC(N)=O)NC(=O)[C@H](C2CCC2)NC(=O)[C@H](CC(N)=O)NC(=O)[C@H](Cc2cccnc2)N(C)C1=O` [PDC_EphA2-00009999, da-Me3Py-N-Cbg-Hgn-MeF-W1Me-KCOpipzaa-W1Me-T-Hgn-C-NH2] ({CH2CO}-[dA][NMe3Pal]N[Gly(cBu)][Aad](NH2)[NMeF][Trp(1-Me)]K([CO-Piperazinyl(4-CH2COOH)])[Trp(1-Me)]T[Aad](NH2)C-NH2; thioether N-12), the Kd is less than 1 nM.
Take `C[C@H]1NC(=O)CSC[C@@H](C(N)=O)NC(=O)[C@H](CCCC(N)=O)NC(=O)[C@H]([C@@H](C)O)NC(=O)[C@H](Cc2cn(C)c3ccccc23)NC(=O)[C@H](CCCCNC(=O)N2CCN(CC(=O)O)CC2)NC(=O)[C@H](Cc2cn(C)c3ccccc23)NC(=O)[C@H](CC(N)=O)NC(=O)[C@H](CCCC(N)=O)NC(=O)[C@H](C2CCC2)NC(=O)[C@H](CC(N)=O)NC(=O)[C@H](Cc2cccnc2)N(C)C1=O` [PDC_EphA2-00010000, da-Me3Py-N-Cbg-Hgn-N-W1Me-KCOpipzaa-W1Me-T-Hgn-C-NH2] ({CH2CO}-[dA][NMe3Pal]N[Gly(cBu)][Aad](NH2)N[Trp(1-Me)]K([CO-Piperazinyl(4-CH2COOH)])[Trp(1-Me)]T[Aad](NH2)C-NH2; thioether N-12): the Kd is less than 1 nM.
For `C[C@H]1NC(=O)CSC[C@@H](C(N)=O)NC(=O)[C@H](CCCC(N)=O)NC(=O)[C@H]([C@@H](C)O)NC(=O)[C@H](Cc2cn(C)c3ccccc23)NC(=O)[C@H](CCCCNC(=O)N2CCN(CC(=O)O)CC2)NC(=O)[C@H](Cc2cn(C)c3ccccc23)NC(=O)[C@H](CC(N)=O)N(C)C(=O)[C@H](CCCC(N)=O)NC(=O)[C@H](C2CCC2)NC(=O)[C@H](CC(N)=O)NC(=O)[C@H](Cc2cccnc2)N(C)C1=O` [PDC_EphA2-00010001, da-Me3Py-N-Cbg-Hgn-MeN-W1Me-KCOpipzaa-W1Me-T-Hgn-C-NH2] ({CH2CO}-[dA][NMe3Pal]N[Gly(cBu)][Aad](NH2)[NMeN][Trp(1-Me)]K([CO-Piperazinyl(4-CH2COOH)])[Trp(1-Me)]T[Aad](NH2)C-NH2; thioether N-12) the value was less than 1 nM; for `C[C@H]1NC(=O)CSC[C@@H](C(N)=O)NC(=O)[C@H](CCCC(N)=O)NC(=O)[C@H]([C@@H](C)O)NC(=O)[C@H](Cc2cn(C)c3ccccc23)NC(=O)[C@H](CCCCNC(=O)N2CCN(CC(=O)O)CC2)NC(=O)[C@H](Cc2cn(C)c3ncccc23)NC(=O)[C@H](Cc2ccccc2)N(C)C(=O)[C@H](CCCC(N)=O)NC(=O)[C@H](C2CCC2)NC(=O)[C@H](CC(N)=O)NC(=O)[C@H](Cc2cccnc2)N(C)C1=O` [PDC_EphA2-00010002, da-Me3Py-N-Cbg-Hgn-MeF-W1Me7N-KCOpipzaa-W1Me-T-Hgn-C-NH2] ({CH2CO}-[dA][NMe3Pal]N[Gly(cBu)][Aad](NH2)[NMeF][X6]K([CO-Piperazinyl(4-CH2COOH)])[Trp(1-Me)]T[Aad](NH2)C-NH2; thioether N-12), less than 1 nM.
The result for `Cc1cccc(C[C@@H]2NC(=O)[C@H](CCCCNC(=O)N3CCN(CC(=O)O)CC3)NC(=O)[C@H](Cc3cn(C)c4ccccc34)NC(=O)[C@H](Cc3ccccc3)N(C)C(=O)[C@H](CCCC(N)=O)NC(=O)[C@H](C3CCC3)NC(=O)[C@H](CC(N)=O)NC(=O)[C@H](Cc3cccnc3)N(C)C(=O)[C@@H](C)NC(=O)CSC[C@@H](C(N)=O)NC(=O)[C@H](CCCC(N)=O)NC(=O)[C@H]([C@@H](C)O)NC2=O)c1C` [PDC_EphA2-00010003, da-Me3Py-N-Cbg-Hgn-MeF-W1Me-KCOpipzaa-F23dMe-T-Hgn-C-NH2] ({CH2CO}-[dA][NMe3Pal]N[Gly(cBu)][Aad](NH2)[NMeF][Trp(1-Me)]K([CO-Piperazinyl(4-CH2COOH)])[X5]T[Aad](NH2)C-NH2; thioether N-12) reads less than 1 nM.
